Test results: ChEMBL document CHEMBL5233273, “An overview of hydroxypyranone and hydroxypyridinone as privileged scaffolds for novel drug discovery” (Eur J Med Chem, 2021)
In brackets after ≈: the same amount, converted by molar mass.

Assays:
[1] = molecular target: T1, Tyrosinase (Agaricus bisporus, UniProt O42713); assay: Inhibition of mushroom tyrosinase
T1 sequence (O42713 whole entry): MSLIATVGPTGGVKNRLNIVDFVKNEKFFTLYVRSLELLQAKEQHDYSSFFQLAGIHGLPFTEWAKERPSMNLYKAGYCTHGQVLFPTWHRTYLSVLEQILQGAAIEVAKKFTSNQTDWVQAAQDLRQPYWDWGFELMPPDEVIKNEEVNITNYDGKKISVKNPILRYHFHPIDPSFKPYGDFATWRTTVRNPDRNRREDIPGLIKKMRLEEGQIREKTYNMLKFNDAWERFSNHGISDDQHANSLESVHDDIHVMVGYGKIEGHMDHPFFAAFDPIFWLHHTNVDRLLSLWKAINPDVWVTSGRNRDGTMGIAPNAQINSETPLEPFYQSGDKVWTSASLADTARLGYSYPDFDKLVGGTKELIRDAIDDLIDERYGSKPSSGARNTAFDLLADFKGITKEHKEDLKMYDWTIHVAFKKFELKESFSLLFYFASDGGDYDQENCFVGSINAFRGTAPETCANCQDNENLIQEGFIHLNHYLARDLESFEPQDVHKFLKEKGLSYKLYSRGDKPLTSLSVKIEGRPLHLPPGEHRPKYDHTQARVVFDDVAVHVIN

[2] = test system: Candida albicans; assay: Antifungal activity against Candida albicans ATCC 90028; assay type: functional
[3] = test system: Mycolicibacterium smegmatis; assay: Antimycobacterial activity against Mycobacterium smegmatis; assay type: functional
[4] = test system: Hepatitis C virus; assay: Antiviral activity against HCV; assay type: functional, organism-based, Hepacivirus hominis
[5] = molecular target: DNA gyrase (Escherichia coli, UniProt P0AES4+P0AES6); assay: Inhibition of Escherichia coli DNA gyrase; assay type: protein-complex assay
[6] = Neuroprotective activity in CGC cells assessed as inhibition of lipid peroxidation; assay type: functional, cell-based; conditions: cerebellar granule neurone
[7] = molecular target: T2, Tyrosinase (Agaricus bisporus) (UniProt O42713); assay: Inhibition of mushroom tyrosinase monophenolase activity
T2 sequence (whole entry): T1 sequence (O42713 whole entry)

[8] = molecular target: T1, Tyrosinase; assay: Inhibition of mushroom tyrosinase diphenolase activity
[9] = molecular target: T2, Tyrosinase (Agaricus bisporus); assay: Potency index, ratio of kojic acid IC50 to test compound IC50 for inhibition of mushroom tyrosinase
[10] = Inhibition of HIV-1 integrase; design: species or system Human immunodeficiency virus 1
[11] = test system: Staphylococcus aureus; assay: Antibacterial activity against Staphylococcus aureus; assay type: functional
[12] = test system: B16-F10; assay: Inhibition of tyrosinase in mouse B16-F10 cells assessed as inhibition of melanin production at 5 ug relative to control; assay type: cell-based; conditions: dose 5.0 µg
[13] = test system: RAW264.7; assay: Antiinflammatory activity in mouse RAW264.7 assessed as reduction in LPS-induced PGE2 production; assay type: functional, cell-based
[14] = test system: Mycobacterium tuberculosis; assay: Antitubercular activity against Mycobacterium tuberculosis H37Rv ATCC 27294; assay type: functional
[15] = test system: Mycobacterium avium; assay: Antitubercular activity against Mycobacterium avium ATCC 15769; assay type: functional
[16] = test system: B16-F10; assay: Inhibition of tyrosinase in mouse B16-F10 cells assessed as inhibition of melanin production at 10 ug/ml relative to control; assay type: cell-based; conditions: dose 10.0 µg/ml
[17] = test system: A549; assay: Cytotoxicity against human A549 cells; assay type: functional, cell-based
[18] = test system: DU-145; assay: Cytotoxicity against human DU-145 cells; assay type: functional, cell-based

Question: For `O=c1cc(Cn2cc(COc3cccc(Cl)c3)nn2)occ1O`, which IC50 [1] is on record?
Answer: 60 nM

Question: Which MIC [2] does the source give for `Cc1cc(=O)c(O)c(CN2CCN(c3ccc(Cl)cc3)CC2)o1` here?
Answer: 64 µg/mL (≈ 191 µM)

Question: Which MIC [2] does the source give for `COc1ccccc1N1CCN(Cc2oc(C)cc(=O)c2O)CC1` here?
Answer: 64 µg/mL (≈ 194 µM)

Question: With `O=c1cc(Cn2cc(COc3ccc(CO)cc3)nn2)occ1O` as the compound, how does the IC50 [1] read?
Answer: 60 nM

Question: For `Cc1cc(=O)c(O)c(CN2CCCCC2C)o1` (stereo not given), which MIC [3] is on record?
Answer: 8 µg/mL (≈ 33.7 µM)

Question: Which IC50 [1] does the source give for `COc1ccc(C(=O)OCc2cc(=O)c(O)co2)cc1` here?
Answer: 20000 nM

Question: What about the EC50 [4] of the same compound?
Answer: 2550 nM

Question: For `O=c1cc(Cn2cc(COc3ccc(Cl)cc3)nn2)occ1O`, which IC50 [1] is on record?
Answer: 60 nM

Question: With `Cc1[nH]c(C(=O)N[C@H]2CCc3nc(NC(=O)CCNC(=O)c4cc(=O)c(O)c[nH]4)sc3C2)c(Cl)c1Cl` as the compound, how does the IC50 [5] read?
Answer: 350 nM

Question: With `Cc1c(O)c(=O)ccn1CCSc1cc(C(C)(C)C)c(O)c(C(C)(C)C)c1` as the compound, how does the IC50 [6] read?
Answer: 400 nM

Question: With `Cc1c(O)c(=O)ccn1CCc1cc(C(C)(C)C)c(O)c(C(C)(C)C)c1` as the compound, how does the IC50 [6] read?
Answer: 300 nM

Question: For `COc1ccc(OCc2cn(Cc3cc(=O)c(O)co3)nn2)cc1`, which IC50 [1] is on record?
Answer: 60 nM

Question: With `Cc1cc(=O)c(O)c(CN2CCN(c3ccccc3Cl)CC2)o1` as the compound, how does the MIC [2] read?
Answer: 64 µg/mL (≈ 191 µM)

Question: With `CCCCCCn1cc(O)c(=O)cc1/C=N/OCC` as the compound, how does the IC5 [7] read?
Answer: 2.04 µM

Question: And the IC50 [8]?
Answer: 13900 nM

Question: Which IC50 [1] does the source give for `O=c1cc(Cn2cc(COc3cccc4ccccc34)nn2)occ1O` here?
Answer: 60 nM

Question: And the Ratio IC50 [9]?
Answer: 31

Question: With `Cc1cc(=O)c(O)c(C(=O)NCc2ccc(F)cc2)o1` as the compound, how does the EC50 [10] read?
Answer: 700 nM

Question: What about the IC50 [10] of the same compound?
Answer: 370 nM

Question: With `CCCC1CCN(Cc2oc(C)cc(=O)c2O)CC1` as the compound, how does the MIC [3] read?
Answer: 8 µg/mL (≈ 30.1 µM)

Question: With `Cc1cc(=O)c(O)c(CN2CC(C)CC(C)C2)o1` (stereo not given) as the compound, how does the MIC [3] read?
Answer: 8 µg/mL (≈ 31.8 µM)

Question: With `Cc1cc(=O)c(O)c(CN2CCC(O)CC2)o1` as the compound, how does the MIC [3] read?
Answer: 8 µg/mL (≈ 33.4 µM)

Question: With `O=c1cc(Cn2cc(COc3ccc(Br)cc3)nn2)occ1O` as the compound, how does the IC50 [1] read?
Answer: 60 nM

Question: Which MIC [2] does the source give for `Cc1cc(=O)c(O)c(CN2CCN(c3ccccc3)CC2)o1` here?
Answer: 64 µg/mL (≈ 213 µM)

Question: With `Cc1cc(=O)c(O)c(CN2CCCC(C)C2)o1` (stereo not given) as the compound, how does the MIC [3] read?
Answer: 8 µg/mL (≈ 33.7 µM)

Question: With `Cn1cc(O)c(=O)cc1C(=O)Nc1ccccc1` as the compound, how does the MIC [11] read?
Answer: 16 µg/mL (≈ 65.5 µM)

Question: For `O=c1cc(/C=C/c2cc(=O)c(O)co2)occ1O`, which inhibition [12] is on record?
Answer: 19.5%

Question: Which IC50 [13] does the source give for `O=c1cc(/C=C/c2ccc(O)c(O)c2)occ1O` here?
Answer: 10300 nM

Question: With `O=C(C1CCCCC1)N1CCN(Cc2oc(CCl)cc(=O)c2O)CC1` as the compound, how does the MIC [14] read?
Answer: 4 µg/mL (≈ 10.8 µM)

Question: What about the MIC [15] of the same compound?
Answer: 4 µg/mL (≈ 10.8 µM)

Question: Which IC50 [1] does the source give for `O=c1cc(Cn2cc(COc3ccc(Cl)cc3Cl)nn2)occ1O` here?
Answer: 60 nM

Question: Which inhibition [16] does the source give for `O=C(/C=C/c1cc(=O)c(O)co1)OCCCOCCCOC(=O)/C=C/c1cc(=O)c(O)co1` here?
Answer: 22.4%

Question: Which results are given for `CC(C)(C)[Si](C)(C)OCc1cc(=O)c(O)c(C(C[N+](=O)[O-])c2ccc(Br)cc2)o1` (stereo not given)?
Answer: IC50 [17]: 8000 nM; IC50 [18]: 13000 nM

Question: With `Cc1cc(=O)c(O)c(CN2CCCC(O)C2)o1` (stereo not given) as the compound, how does the MIC [3] read?
Answer: 8 µg/mL (≈ 33.4 µM)

Question: With `N#Cc1ccc(OCc2cn(Cc3cc(=O)c(O)co3)nn2)cc1` as the compound, how does the IC50 [1] read?
Answer: 60 nM

Question: Which MIC [3] does the source give for `Cc1cc(=O)c(O)c(CN2CCC(c3ccc(O)cc3)CC2)o1` here?
Answer: 8 µg/mL (≈ 25.4 µM)

Question: Which EC50 [4] does the source give for `O=C(OCc1cc(=O)c(O)co1)c1ccc2ccccc2c1` here?
Answer: 2740 nM

Question: With `Cn1cc(O)c(=O)cc1C(=O)Nc1cccnc1` as the compound, how does the MIC [11] read?
Answer: 32 µg/mL (≈ 130 µM)

Question: With `Cc1[nH]c(C(=O)N[C@H]2CCc3nc(NCc4cc(=O)c(O)co4)sc3C2)c(Cl)c1Cl` as the compound, how does the IC50 [5] read?
Answer: 2100 nM

Question: With `Cc1cc(=O)c(O)c(CN2CCC(Cc3ccccc3)CC2)o1` as the compound, how does the MIC [3] read?
Answer: 8 µg/mL (≈ 25.5 µM)

Question: For `Cc1[nH]c(C(=O)N[C@H]2CCc3nc(NC(=O)[C@H](C)NC(=O)c4cc(=O)c(O)c[nH]4)sc3C2)c(Cl)c1Cl`, which IC50 [5] is on record?
Answer: 260 nM

Question: With `Cc1cc(=O)c(O)c(CN2CCN(Cc3ccccc3)CC2)o1` as the compound, how does the MIC [2] read?
Answer: 64 µg/mL (≈ 204 µM)

Question: For `Cc1cc(=O)c(O)c(CN2CCC(C)CC2)o1`, which MIC [3] is on record?
Answer: 8 µg/mL (≈ 33.7 µM)

Question: With `Cc1cc(=O)c(O)c(CN2CCN(Cc3ccc4c(c3)OCO4)CC2)o1` as the compound, how does the MIC [2] read?
Answer: 64 µg/mL (≈ 179 µM)

Question: With `Nn1c(SCc2cc(=O)c(O)co2)nnc1-c1ccc(Cl)cc1` as the compound, how does the IC50 [1] read?
Answer: 4500 nM

Question: With `COc1cc(OCc2cn(Cc3cc(=O)c(O)co3)nn2)cc(OC)c1OC` as the compound, how does the IC50 [1] read?
Answer: 60 nM

Question: What does the source list for `Cc1cc(=O)c(O)c(C(=O)NCc2ccc(Cl)cc2)o1`?
Answer: EC50 [10]: 1950 nM; IC50 [10]: 1720 nM

Question: With `CC(=O)Nc1ccc(OCc2cn(Cc3cc(=O)c(O)co3)nn2)cc1` as the compound, how does the IC50 [1] read?
Answer: 60 nM
